Where “and” joins values, the source holds several entries; their conditions need not be identical. Identical values can stand only once.
Test system: cos-7 cells
Test: DNA transfection: luciferase expression relative to Lipofectamine 2000
Type: cell-based
Conditions: 300 ng Luciferase DNA per well, luciferase assay after 48 hours
Experimental: 14,000 cos-7 cells (ATCC, Manassas, Va.) were seeded into each well of a solid white or clear 96 well plate (Corning-Costar, Kennebunk, Me.) and allowed to attached overnight in growth medium, composed of: 500 ml phenol red minus DMEM, 50 ml heat inactivated FBS, 5 ml penicillin/streptomycin (Invitrogen, Carlsbad, Calif.).
A small liquot of lipid was tranferred to an Eppendorf tube. Based on the mass of the lipid in the tube, sterile 25 mM sodium acetate buffer was added to each tube to yield a concentration of 60 mg/ml. The resulting mixture was vortexed for approximately 20 minutes until the lipid was fully dissolved. DNA was prepared based on 300 ng DNA per well of a 96-well plate. 291 μg of Lc DNA was dissolved in 9210 μl of 25 mM sodium acetate buffer. Aliquots of 30 μl of DNA solution were added to each well expect for the last column which was reserved for the Lipo2000 standard. For the last column of the plate, 61 μg of DNA was added to 1940 μl Optimem. 150 μl of media/Optimem was added to each well of plates. 50 μl of lipid solution was aliquoted into wells of robot plate. The following amounts were aliquoted to obtain the correct ratios of DNA to lipid:
In quadruplicate, 30 μl of lipid was aliquoted onto DNA in four rows for each ratio. For the Lipo2000 control (2.5 w/w ratio to DNA), 152.5 μg of Lipo sample was aliquoted into 1847.5 μl of Optimem. 30 μl of this solution was aliquoted onto DNA in the Optimem in the last columns of each plate. The plates were incubated for 15-20 minutes, and then 36.5 μl of lipid+DNA complexes was transferred into 150 μl of media/Optimem, then add to cells. The media was aspirated off the cells, and 105 μl of the lipid/DNA/media/Optimem solution was added to the cells. The luciferase assay was performed after 48 hours.
Luminescence was analyzed using bright-glo assay kits (Promega). Briefly, 100 μl of bright-glo solution was added to each well of the microtiter plate containing media and cells. Luminescence was measured using a Mithras Luminometer (Berthold, Oak Ridge, Tenn.). In some cases, a neutral density filter (Chroma, Brattleboro, Vt.) was used to prevent saturation of the luminometer. A standard curve for Luciferase was generated by titration of Luciferase enzyme (Promega) into growth media in white microtiter plates. Luciferase in ng per well are calculated for each of the lipids at 2.5 w/w, 5 w/w, 10 w/w, 15 w/w, 20 w/w, and 25 w/w lipid to DNA based on the standard curve.
The table below summarizes the data as a % of the luciferase activity obtained from the use of Lipofectamine 2000. The table indicates the best lipids for transfection.

SMILES	Luciferase expression as a percentage of that achieved using Lipofectamine 2000 (lipid/DNA 2.5 w/w)	Luciferase expression as a percentage of that achieved using Lipofectamine 2000 (lipid/DNA 5 w/w)	Luciferase expression as a percentage of that achieved using Lipofectamine 2000 (lipid/DNA 10 w/w)	Luciferase expression as a percentage of that achieved using Lipofectamine 2000 (lipid/DNA 15 w/w)	Luciferase expression as a percentage of that achieved using Lipofectamine 2000 (lipid/DNA 20 w/w)	Luciferase expression as a percentage of that achieved using Lipofectamine 2000 (lipid/DNA 25 w/w)
CCCCCCCCCCOC(=O)CCN(CCCO)CCC(=O)OCCCCCCCCCC [LB20]	0.1%	0.1%	0.4%	0.2%	0.3%	0.7%
CCCCCCCCCCOC(=O)CCN(CCC(=O)OCCCCCCCCCC)C[C@@H](C)O [LB21]	0.7%	0.8%	0.7%	0.7%	0.7%	0.8%
CCCCCCCCCCOC(=O)CCN(CCC(=O)OCCCCCCCCCC)C[C@H](C)O [LB22]	0.3%	0.3%	0.4%	0.4%	0.4%	0.4%
CCCCCCCCCCOC(=O)CCN(CCC(=O)OCCCCCCCCCC)CC(O)CO (stereo not drawn) [LB24]	0.1%	0.2%	0.4%	0.1%	0.1%	0.1%
CCCCCCCCCCOC(=O)CCN(CCC(=O)OCCCCCCCCCC)C(CO)CO [LB25]	0.8%	2.4%	2.6%	3.3%	2.3%	1.8%
CCCCCCCCCCOC(=O)CCN(CCC(=O)OCCCCCCCCCC)C(C)(CO)CO [LB26]	0.1%	0.1%	0.1%	0.1%	0.1%	0.1%
CCCCCCCCCCOC(=O)CCN(CCCCO)CCC(=O)OCCCCCCCCCC [LB28]	0.1%	0.1%	0.1%	0.1%	0.1%	0.1%
CCCCCCCCCCOC(=O)CCN(CCOCCO)CCC(=O)OCCCCCCCCCC [LB31]	1.2% and 0.1%	0.8% and 0.1%	8.3% and 0.1%	1.9% and 0.1%	1.3% and 0.1%	4.2% and 0.1%
CCCCCCCCCCOC(=O)CCN(CCCCCO)CCC(=O)OCCCCCCCCCC [LB32]	0.1%	0.1%	0.1%	0.1%	0.1%	0.1%
CCCCCCCCCCOC(=O)CCN(CCC(=O)OCCCCCCCCCC)CC(C)(C)CO [LB33]	0.1%	0.1%	0.1%	0.1%	0.1%	0.1%
CCCCCCCCCCOC(=O)CCN(CCC(=O)OCCCCCCCCCC)C(CC)(CO)CO [LB34]	0.1%	0.1%	0.2%	0.4%	0.1%	0.1%
CCCCCCCCCCOC(=O)CCN(CCCCCCO)CCC(=O)OCCCCCCCCCC [LB36]	0.1%	0.1%	0.1%	0.1%	0.1%	0.1%
CCCCCCCCCCOC(=O)CCN(CCC(=O)OCCCCCCCCCC)C1CCC(O)CC1 (stereo not drawn) [LB38]	0.7%	0.8%	0.7%	0.8%	0.7%	0.8%
CCCCCCCCCCOC(=O)CCN(C)CCN(C)CCC(=O)OCCCCCCCCCC [LB60]	0.4%	0.4%	0.4%	0.4%	0.4%	0.4%
